Assay results: ChEMBL document CHEMBL3351292, “Structure-Based Design and Synthesis of Potent Cyclic Peptides Inhibiting the YAP-TEAD Protein-Protein Interaction” (ACS Med Chem Lett, 2014)
Where a SMILES comes first, the peptide text is derived from it.

Biological target: Transcriptional coactivator YAP1/Transcriptional enhancer factor TEF-1 (Homo sapiens) (UniProt P46937+P28347)
Assay: Inhibition of YAP/ GST-TEAD1 (unknown origin) interaction at 50 uM by surface plasmon resonance assay
Type: protein assay

Sequence of Transcriptional coactivator YAP1/Transcriptional enhancer factor TEF-1 (Homo sapiens) (P28347 whole entry, looked up): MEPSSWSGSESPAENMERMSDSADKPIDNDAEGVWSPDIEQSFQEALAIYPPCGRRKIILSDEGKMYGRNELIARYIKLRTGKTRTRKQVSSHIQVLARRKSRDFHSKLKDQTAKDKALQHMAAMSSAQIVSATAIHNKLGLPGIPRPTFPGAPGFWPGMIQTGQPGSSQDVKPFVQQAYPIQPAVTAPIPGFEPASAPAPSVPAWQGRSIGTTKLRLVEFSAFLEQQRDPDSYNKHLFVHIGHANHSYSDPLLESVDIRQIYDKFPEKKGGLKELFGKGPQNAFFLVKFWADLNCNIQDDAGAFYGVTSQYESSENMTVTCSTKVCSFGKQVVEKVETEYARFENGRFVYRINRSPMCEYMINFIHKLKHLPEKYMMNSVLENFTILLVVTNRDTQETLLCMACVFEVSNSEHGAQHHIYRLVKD
Sequence of Transcriptional coactivator YAP1/Transcriptional enhancer factor TEF-1 (Homo sapiens) (P46937 whole entry, looked up): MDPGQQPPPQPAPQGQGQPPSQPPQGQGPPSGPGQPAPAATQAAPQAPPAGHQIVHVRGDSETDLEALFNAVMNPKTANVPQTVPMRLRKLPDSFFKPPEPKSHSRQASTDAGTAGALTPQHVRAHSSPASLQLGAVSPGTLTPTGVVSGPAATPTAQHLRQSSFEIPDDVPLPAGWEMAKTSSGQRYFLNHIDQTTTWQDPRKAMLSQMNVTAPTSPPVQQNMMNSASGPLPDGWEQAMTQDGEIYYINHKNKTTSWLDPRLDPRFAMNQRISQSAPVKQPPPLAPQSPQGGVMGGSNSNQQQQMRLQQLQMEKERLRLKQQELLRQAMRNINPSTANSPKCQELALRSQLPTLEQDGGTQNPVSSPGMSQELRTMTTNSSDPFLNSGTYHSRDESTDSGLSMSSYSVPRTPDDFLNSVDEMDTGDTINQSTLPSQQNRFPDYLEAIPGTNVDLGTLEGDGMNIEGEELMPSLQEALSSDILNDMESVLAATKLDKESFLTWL

SMILES	inhibition [%]
CSCC[C@H](NC(=O)[C@@H]1CCCN1C(=O)[C@@H](NC(=O)[C@@H](NC(=O)[C@H](CCC(N)=O)NC(C)=O)[C@@H](C)O)C(C)C)C(=O)N[C@@H](CCCNC(=N)N)C(=O)N[C@@H](CC(C)C)C(=O)N[C@@H](CCCNC(=N)N)C(=O)N[C@@H](CCCCN)C(=O)N[C@@H](CC(C)C)C(=O)N1CCC[C@H]1C(=O)N[C@@H](CC(=O)O)C(=O)N[C@@H](CO)C(=O)N[C@@H](Cc1ccccc1)C(=O)N[C@@H](Cc1ccccc1)C(=O)N[C@@H](CCCCN)C(=O)N1CCC[C@H]1C(=O)N1CCC[C@H]1C(=O)N[C@@H](CCC(=O)O)C(N)=O	59
CSCC[C@H](NC(=O)[C@@H]1CCCN1C(=O)[C@@H](NC(=O)[C@@H](NC(C)=O)[C@@H](C)O)C(C)C)C(=O)N[C@@H](CCCNC(=N)N)C(=O)N[C@@H](CC(C)C)C(=O)N[C@@H](CCCNC(=N)N)C(=O)N[C@@H](CCCCN)C(=O)N[C@@H](CC(C)C)C(=O)N1CCC[C@H]1C(=O)N[C@@H](CC(=O)O)C(=O)N[C@@H](CO)C(=O)N[C@@H](Cc1ccccc1)C(=O)N[C@@H](Cc1ccccc1)C(=O)N[C@@H](CCCCN)C(=O)N1CCC[C@H]1C(=O)N1CCC[C@H]1C(=O)N[C@@H](CCC(=O)O)C(N)=O	60
CSCC[C@H](NC(=O)[C@@H]1CCCN1C(=O)[C@@H](NC(=O)[C@H](C)NC(=O)[C@H](CCC(N)=O)NC(=O)[C@@H]1CCCN1C(C)=O)C(C)C)C(=O)N[C@@H](CCCNC(=N)N)C(=O)N[C@@H](CC(C)C)C(=O)N[C@@H](CCCNC(=N)N)C(=O)N[C@@H](CCCCN)C(=O)N[C@@H](CC(C)C)C(=O)N1CCC[C@H]1C(=O)N[C@@H](CC(=O)O)C(=O)N[C@@H](CO)C(=O)N[C@@H](Cc1ccccc1)C(=O)N[C@@H](Cc1ccccc1)C(=O)N[C@@H](CCCCN)C(=O)N1CCC[C@H]1C(=O)N1CCC[C@H]1C(=O)N[C@@H](CCC(=O)O)C(N)=O	52
CSCC[C@H](NC(C)=O)C(=O)N[C@@H](CCCNC(=N)N)C(=O)N[C@@H](CC(C)C)C(=O)N[C@@H](CCCNC(=N)N)C(=O)N[C@@H](CCCCN)C(=O)N[C@@H](CC(C)C)C(=O)N1CCC[C@H]1C(=O)N[C@@H](CC(=O)O)C(=O)N[C@@H](CO)C(=O)N[C@@H](Cc1ccccc1)C(=O)N[C@@H](Cc1ccccc1)C(=O)N[C@@H](CCCCN)C(=O)N1CCC[C@H]1C(=O)N1CCC[C@H]1C(=O)N[C@@H](CCC(=O)O)C(N)=O (Ac-MRLRKLPDSFFKPPE-NH2)	12
CSCC[C@H](NC(=O)[C@@H]1CCCN1C(C)=O)C(=O)N[C@@H](CCCNC(=N)N)C(=O)N[C@@H](CC(C)C)C(=O)N[C@@H](CCCNC(=N)N)C(=O)N[C@@H](CCCCN)C(=O)N[C@@H](CC(C)C)C(=O)N1CCC[C@H]1C(=O)N[C@@H](CC(=O)O)C(=O)N[C@@H](CO)C(=O)N[C@@H](Cc1ccccc1)C(=O)N[C@@H](Cc1ccccc1)C(=O)N[C@@H](CCCCN)C(=O)N1CCC[C@H]1C(=O)N1CCC[C@H]1C(=O)N[C@@H](CCC(=O)O)C(N)=O (Ac-PMRLRKLPDSFFKPPE-NH2)	25
CSCC[C@H](NC(=O)[C@@H]1CCCN1C(=O)[C@H](C)NC(=O)[C@@H](NC(=O)[C@H](CCC(N)=O)NC(=O)[C@@H]1CCCN1C(C)=O)[C@@H](C)O)C(=O)N[C@@H](CCCNC(=N)N)C(=O)N[C@@H](CC(C)C)C(=O)N[C@@H](CCCNC(=N)N)C(=O)N[C@@H](CCCCN)C(=O)N[C@@H](CC(C)C)C(=O)N1CCC[C@H]1C(=O)N[C@@H](CC(=O)O)C(=O)N[C@@H](CO)C(=O)N[C@@H](Cc1ccccc1)C(=O)N[C@@H](Cc1ccccc1)C(=O)N[C@@H](CCCCN)C(=O)N1CCC[C@H]1C(=O)N1CCC[C@H]1C(=O)N[C@@H](CCC(=O)O)C(N)=O (Ac-PQTAPMRLRKLPDSFFKPPE-NH2)	26
CSCC[C@H](NC(=O)[C@H](C)NC(=O)[C@@H](NC(=O)[C@@H](NC(=O)[C@H](CCC(N)=O)NC(=O)[C@@H]1CCCN1C(C)=O)[C@@H](C)O)C(C)C)C(=O)N[C@@H](CCCNC(=N)N)C(=O)N[C@@H](CC(C)C)C(=O)N[C@@H](CCCNC(=N)N)C(=O)N[C@@H](CCCCN)C(=O)N[C@@H](CC(C)C)C(=O)N1CCC[C@H]1C(=O)N[C@@H](CC(=O)O)C(=O)N[C@@H](CO)C(=O)N[C@@H](Cc1ccccc1)C(=O)N[C@@H](Cc1ccccc1)C(=O)N[C@@H](CCCCN)C(=O)N1CCC[C@H]1C(=O)N1CCC[C@H]1C(=O)N[C@@H](CCC(=O)O)C(N)=O (Ac-PQTVAMRLRKLPDSFFKPPE-NH2)	33
CC(=O)N1CCC[C@H]1C(=O)N[C@@H](CCC(N)=O)C(=O)N[C@H](C(=O)N[C@H](C(=O)N1CCC[C@H]1C(=O)N[C@@H](C)C(=O)N[C@@H](CCCNC(=N)N)C(=O)N[C@@H](CC(C)C)C(=O)N[C@@H](CCCNC(=N)N)C(=O)N[C@@H](CCCCN)C(=O)N[C@@H](CC(C)C)C(=O)N1CCC[C@H]1C(=O)N[C@@H](CC(=O)O)C(=O)N[C@@H](CO)C(=O)N[C@@H](Cc1ccccc1)C(=O)N[C@@H](Cc1ccccc1)C(=O)N[C@@H](CCCCN)C(=O)N1CCC[C@H]1C(=O)N1CCC[C@H]1C(=O)N[C@@H](CCC(=O)O)C(N)=O)C(C)C)[C@@H](C)O (Ac-PQTVPARLRKLPDSFFKPPE-NH2)	1.3
CSCC[C@H](NC(=O)[C@@H]1CCCN1C(=O)[C@@H](NC(=O)[C@@H](NC(=O)[C@H](CCC(N)=O)NC(=O)[C@@H]1CCCN1C(C)=O)[C@@H](C)O)C(C)C)C(=O)N[C@@H](C)C(=O)N[C@@H](CC(C)C)C(=O)N[C@@H](CCCNC(=N)N)C(=O)N[C@@H](CCCCN)C(=O)N[C@@H](CC(C)C)C(=O)N1CCC[C@H]1C(=O)N[C@@H](CC(=O)O)C(=O)N[C@@H](CO)C(=O)N[C@@H](Cc1ccccc1)C(=O)N[C@@H](Cc1ccccc1)C(=O)N[C@@H](CCCCN)C(=O)N1CCC[C@H]1C(=O)N1CCC[C@H]1C(=O)N[C@@H](CCC(=O)O)C(N)=O (Ac-PQTVPMALRKLPDSFFKPPE-NH2)	23
CSCC[C@H](NC(=O)[C@@H]1CCCN1C(=O)[C@@H](NC(=O)[C@@H](NC(=O)[C@H](CCC(N)=O)NC(=O)[C@@H]1CCCN1C(C)=O)[C@@H](C)O)C(C)C)C(=O)N[C@@H](CCCNC(=N)N)C(=O)N[C@@H](C)C(=O)N[C@@H](CCCNC(=N)N)C(=O)N[C@@H](CCCCN)C(=O)N[C@@H](CC(C)C)C(=O)N1CCC[C@H]1C(=O)N[C@@H](CC(=O)O)C(=O)N[C@@H](CO)C(=O)N[C@@H](Cc1ccccc1)C(=O)N[C@@H](Cc1ccccc1)C(=O)N[C@@H](CCCCN)C(=O)N1CCC[C@H]1C(=O)N1CCC[C@H]1C(=O)N[C@@H](CCC(=O)O)C(N)=O (Ac-PQTVPMRARKLPDSFFKPPE-NH2)	49
CSCC[C@H](NC(=O)[C@@H]1CCCN1C(=O)[C@@H](NC(=O)[C@@H](NC(=O)[C@H](CCC(N)=O)NC(=O)[C@@H]1CCCN1C(C)=O)[C@@H](C)O)C(C)C)C(=O)N[C@@H](CCCNC(=N)N)C(=O)N[C@@H](CC(C)C)C(=O)N[C@@H](C)C(=O)N[C@@H](CCCCN)C(=O)N[C@@H](CC(C)C)C(=O)N1CCC[C@H]1C(=O)N[C@@H](CC(=O)O)C(=O)N[C@@H](CO)C(=O)N[C@@H](Cc1ccccc1)C(=O)N[C@@H](Cc1ccccc1)C(=O)N[C@@H](CCCCN)C(=O)N1CCC[C@H]1C(=O)N1CCC[C@H]1C(=O)N[C@@H](CCC(=O)O)C(N)=O (Ac-PQTVPMRLAKLPDSFFKPPE-NH2)	1.7
